From paper PMC7713294, “Multiplicity of carotene patterns derives from competition between phytoene desaturase diversification and biological environments” (Scientific Reports, 2020)

What was measured:
Experiment in all cases: HPLC-UV time course, global Michaelis-Menten fit (COPASI)
Type in all cases: biochemical
[1] = target: T1, I3_Rc (Rhodobacter capsulatus, UniProt P17054); details: phytoene liposomes (soy lecithin), FAD, pH 8.0, 30 °C, Kd = kr/kf fitted with bounded rate constants
T1 construct: gene crtI; full length, codon optimized, C-terminal His6, E. coli BL21(DE3), TALON purified with FAD; species only as initials

[2] = target: T2, I4_Bt (CrtI from Blakeslea trispora) (Blakeslea trispora, UniProt Q67GI0); details: phytoene liposomes (soy lecithin), FAD, pH 8.0, 30 °C; Kd = kr/kf fitted with bounded rate constants
T2 construct: gene carB; full length, codon optimized, C-terminal His6, E. coli BL21(DE3), TALON purified with FAD
T2 sequence (Q67GI0 1-582): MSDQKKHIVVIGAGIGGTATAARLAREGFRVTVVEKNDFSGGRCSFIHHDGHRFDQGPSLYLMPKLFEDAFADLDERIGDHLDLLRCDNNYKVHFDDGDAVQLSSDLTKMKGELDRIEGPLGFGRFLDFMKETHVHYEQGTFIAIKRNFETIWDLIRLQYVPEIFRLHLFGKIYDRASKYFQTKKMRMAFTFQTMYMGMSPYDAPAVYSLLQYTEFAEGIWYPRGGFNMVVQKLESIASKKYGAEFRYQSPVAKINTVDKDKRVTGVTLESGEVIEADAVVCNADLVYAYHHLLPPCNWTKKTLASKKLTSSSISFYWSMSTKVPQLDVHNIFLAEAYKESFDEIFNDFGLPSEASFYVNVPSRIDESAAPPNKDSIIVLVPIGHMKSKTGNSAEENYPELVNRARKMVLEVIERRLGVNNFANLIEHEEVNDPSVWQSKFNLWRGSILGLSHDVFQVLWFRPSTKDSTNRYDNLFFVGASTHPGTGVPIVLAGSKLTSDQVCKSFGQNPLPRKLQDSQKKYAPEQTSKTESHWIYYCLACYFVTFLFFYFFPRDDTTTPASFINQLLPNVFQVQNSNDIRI

[3] = target: T3, I4_Ma (Mycolicibacterium aurum, UniProt Q9K566); details: phytoene liposomes (soy lecithin), FAD, pH 8.0, 30 °C, Kd = kr/kf fitted with bounded rate constants
T3 construct: gene crtI; full length, codon optimized, C-terminal His6, E. coli BL21(DE3), TALON purified with FAD; species only as initials (Ma), read as Mycobacterium aurum
T3 sequence (Q9K566 entry or part of it): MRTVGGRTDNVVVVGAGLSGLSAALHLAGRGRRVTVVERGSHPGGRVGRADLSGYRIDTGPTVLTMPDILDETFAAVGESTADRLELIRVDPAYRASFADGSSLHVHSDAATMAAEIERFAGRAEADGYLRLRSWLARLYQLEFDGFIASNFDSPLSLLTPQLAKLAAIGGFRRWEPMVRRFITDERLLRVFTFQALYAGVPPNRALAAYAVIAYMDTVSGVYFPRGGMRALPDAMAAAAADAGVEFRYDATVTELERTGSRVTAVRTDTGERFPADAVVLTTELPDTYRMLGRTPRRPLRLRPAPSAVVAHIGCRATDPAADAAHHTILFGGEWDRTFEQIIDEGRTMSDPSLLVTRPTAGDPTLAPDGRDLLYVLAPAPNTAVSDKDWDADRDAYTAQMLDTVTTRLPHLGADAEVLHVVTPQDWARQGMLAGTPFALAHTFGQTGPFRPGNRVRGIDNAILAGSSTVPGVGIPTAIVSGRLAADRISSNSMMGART

T1 sequence (P17054 whole entry): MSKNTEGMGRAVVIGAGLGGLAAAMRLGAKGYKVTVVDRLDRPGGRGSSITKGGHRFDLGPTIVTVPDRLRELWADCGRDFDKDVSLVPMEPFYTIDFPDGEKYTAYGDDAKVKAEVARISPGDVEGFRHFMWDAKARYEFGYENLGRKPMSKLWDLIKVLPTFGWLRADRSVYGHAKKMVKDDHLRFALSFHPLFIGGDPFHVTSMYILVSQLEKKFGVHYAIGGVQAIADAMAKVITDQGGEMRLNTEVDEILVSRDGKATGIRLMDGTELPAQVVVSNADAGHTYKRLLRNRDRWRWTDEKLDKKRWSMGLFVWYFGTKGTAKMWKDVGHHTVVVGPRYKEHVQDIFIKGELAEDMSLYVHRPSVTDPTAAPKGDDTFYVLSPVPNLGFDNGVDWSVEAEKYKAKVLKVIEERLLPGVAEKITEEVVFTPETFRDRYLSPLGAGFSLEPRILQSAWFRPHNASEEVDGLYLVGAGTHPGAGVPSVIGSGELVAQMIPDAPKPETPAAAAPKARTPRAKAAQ

Row | Compound | Kd ([1]; lycopene production poorly fitted for I3_Rc) | Kd [2] | Kd ([3]; intermediate formed in situ from phytoene) | Kd [1] | Kd [3]
1 | CC(C)=CCC/C(C)=C/C=C/C(C)=C/C=C/C(C)=C/C=C/C=C(C)/C=C/C=C(\C)CC/C=C(\C)CCC=C(C)C [neurosporene] | 33000 nM | 1600 nM | 2100 nM | – | –
2 | CC(C)=CCC/C(C)=C/CC/C(C)=C/CC/C(C)=C/C=C\C=C(/C)CC/C=C(\C)CC/C=C(\C)CCC=C(C)C [phytoene] | – | 7900 nM | – | 1100 nM | 13100 nM
3 | CC(C)=CCC/C(C)=C/CC/C(C)=C/C=C/C(C)=C/C=C/C=C(\C)CC/C=C(\C)CC/C=C(\C)CCC=C(C)C [phytofluene] | – | 4700 nM | – | 1000 nM | 1000 nM
4 | CC(C)=CCC/C(C)=C/CC/C(C)=C/C=C/C(C)=C/C=C/C=C(C)/C=C/C=C(\C)CC/C=C(\C)CCC=C(C)C [ζ-carotene] | – | 2500 nM | – | 23000 nM | 2300 nM
